The nature of series [1]: Pharmacokinetic evaluation in male CD-1 mice (IV 0.5 mg/kg, PO 2 mg/kg), plasma LC/MS/MS. Type of series: in vivo. As to the method: Assay purpose: The pharmacokinetic properties of the compounds of the present disclosure were studied in mice.
Each assay compound was mixed with DMAC respectively, and vortexed for 2 minutes. The solution of the assay compound in DMAC was mixed and vortexed for 2 minutes to prepare a clear solution of 10 mg/mL. 0.0600 mL of 10 mg/mL solution was added to 0.300 mL of Solutol, and the mixture was vortexed for 2 minutes. Then 2.400 mL of normal saline was added, and the mixture was vortexed for 2 minutes to obtain a clear solution of 0.2 mg/mL, which was used for administration in PO group. 0.500 mL of the solution for administration in PO group was vortexed for 2 minutes, and 0.0500 mL of DMAC was added. The mixture was vortexed for 2 minutes, and then 0.0500 mL of solutol was added. The mixture was vortexed for 2 minutes, and finally 0.400 mL of normal saline was added. The mixture was vortexed for two minutes to give a clear solution of 0.1 mg/mL, which was filtered through a microporous membrane to give a solution for administration in injection (IV) group.
Four male CD-1 mice were divided into two groups. The animals in the first group were administered intravenously once at a dose of 0.5 mg/kg, wherein the vehicle was 10% DMAC/10% Solutol/80% normal saline, and the administration volume was 5 mL/kg. The animals in the second group were administered orally 2 mg/kg of the assay compound by oral gavage, wherein the oral vehicle was 10% DMAC/10% Solutol/80% normal saline, and the oral volume was 10 mL/kg. Whole blood was collected at 0.033 (IV injection only), 0.083, 0.25, 0.5, 1, 2, 4 and 12 hours post-dose. The whole blood was centrifuged at 3200 g at 2-8 °C for 10 min to obtain plasma. The concentration of the assay compound in plasma was determined by LC/MS/MS method, and the pharmacokinetic parameters were calculated by Phoenix WinNonlin software.
The parameters have the following meanings: IV: intravenous injection; PO: oral administration; C0: initial plasma concentration; Cmax: maximum drug concentration in the systemic circulation; Tmax: time required to reach Cmax; T1/2: half-life; Vdss: apparent volume of distribution; Cl: clearance rate; AUC0-last: area under the plasma drug concentration-time curve.

Series [2] is described as follows: Solid stability testing of the crystal form B (influencing factors: high temperature, high humidity, light; accelerated 40 °C/75% RH; long-term 25 °C/60% RH). Type of series: physicochemical. From the text:
Influencing factor testing: unless otherwise specified, each sample was placed in an open weighing bottle, which was placed in the corresponding storage container to investigate the stability at the time points of 5 and 10 days. The photostability testing complied with the requirements of ICH Q1B: the illuminated sample was exposed to visible light and ultraviolet light; storage conditions: the sample was illuminated at 5000±500 lux (visible light) and 90 μw/cm^2 (UV) for 5 days and 10 days. The total illumination received by the sample after 10 days was not less than 1.2×10^6 Lux·h, and the near-ultraviolet energy was not less than 200 w·h/m^2. The illuminated sample was placed in a clean weighing bottle, and spread out into a single layer without being covered by anything. The weighing bottle was uncovered and placed in an illumination box for illumination. The control sample was packaged in the same way as the illuminated sample, but the weighing bottle was covered with aluminum film. Long-term and accelerated testing: each sample was placed in a double-layer LDPE bag, respectively, and each layer of the LDPE bag was sealed with a buckle. Then, the sample was placed in an aluminum foil bag, which was heat-sealed. The sample was placed for 1, 2 and 3 months in the accelerated testing, and placed for 3 months under the long-term condition. XRPD analysis was performed on all the stability samples to test the changes in the crystal forms.
25 mg of a sample was taken, weighed accurately, and placed in a 10 mL volumetric flask. 6 mL of acetonitrile was added and the sample was dissolved by ultrasound. The mixture was cooled to room temperature, and water was added to the scale marker. The mixture was shaken well, and the sample was dissolved to give a solution with a concentration of approximately 2.5 mg/mL. The liquid phase was used for sample injection analysis. The test results were compared with the initial test results on day 0.

Experiment in series [3]: as above
In kind it is physicochemical. This is another data set of the same source.

Series [4] in a line: Hygroscopicity study by dynamic vapor sorption (DVS). Type of series: physicochemical. The following applies: 25 °C/80% RH. As to the method: Instrument model: SMS DVS intrinsic plus dynamic vapor sorption instrument. Detailed DVS parameters are as follows: • Temperature: 25 °C; • Protective gas and flow rate: nitrogen, 200 mL/min; • dm/dt=0.002%/min; • RH (%) test gradient: 10% RH; • Minimum dm/dt balance time: 10 min; • Maximum balance time: 180 min; • Range of RH (%) test gradient: 0% to 95%.
The classification of hygroscopicity evaluation is as follows: • Absorbing enough water and forming a liquid: deliquescence; ΔW %≥15%: very hygroscopic; 15%>ΔW %≥2%: hygroscopic; 2%>ΔW %≥0.2%: slightly hygroscopic; ΔW %<0.2%: Not or almost not hygroscopic. ΔW % represents the weight increase of a test sample by moisture absorption at 25±1 °C and 80±2% RH.
The test was performed using SMS DVS intrinsic plus dynamic vapor sorption instrument.

The mark [5] stands for this setting: High humidity (25 °C, 92.5% relative humidity, uncovered), 10 days.
Setting [6] is: High temperature (60 °C, uncovered), 10 days.
Setting [7] is: Long term (25 °C, 60% relative humidity, uncovered), 3 months.
Setting [8] is: Visible light + UV (ICH conditions), total illumination of visible light reaching 1200000 Lux·h, UV reaching 200 w·h/m^2.
Where [9] appears, read: Accelerated (40 °C, 75% relative humidity, uncovered), 1 month.
Setting [10] is: Accelerated (40 °C, 75% relative humidity, uncovered), 2 months.
Where [11] appears, read: Accelerated (40 °C, 75% relative humidity, uncovered), 3 months.
Setting [12] is: Light-shielding control group, placed with visible light + UV light, wrapped with tin foil.

We go through 2 compounds from US20260347370A1, “SALT TYPE AND CRYSTAL FORM OF THIENOPYRIMIDINONE DERIVATIVE” (CMS RESEARCH & DEVELOPMENT PTE. LTD., priority 2022, published 2026).

As a reminder, the Cmax is the peak of the concentration-time curve. As usually defined, the Tmax is the time from dosing to the highest level.

As for `O=C(O)c1scc2[nH]c(=O)n(-c3cc4c(cc3F)OCCCOc3ccc(F)c(F)c3CO4)c(=O)c12` [Compound of formula (I)], in series [1] (IV (0.5 mg/kg)), the AUC0-last came out at 48.307 µM·h, the “Cl (clearance rate)” value is 0.332 mL/min/kg, the T1/2 was 5.66 h and the “Vdss (apparent volume of distribution)” value is recorded as 0.159 L/kg. In addition, in series [1] (IV (0.5 mg/kg), read-out: C0 (initial plasma concentration)), the C0 was found to be 13.5 µM. In series [1] (PO (2 mg/kg)), this compound showed an AUC0-last of 142.824 µM·h, a Bioavailability of 95.3%, a Cmax of 25.8 µM and a T1/2 of 5.03 h. Also, the Tmax in series [1] (PO (2 mg/kg)) worked out at 0.500 h.
For the compound `O=C(O)c1scc2[nH]c(=O)n(-c3cc4c(cc3F)OCCCOc3ccc(F)c(F)c3CO4)c(=O)c12`, the “Purity (HPLC)” value in series [2] (0 day (initial)), in series [2] (setting [5]), in series [2] (setting [6]), in series [2] (setting [7]), in series [2] (setting [8]) and in series [3] (setting [9]) was 99.4% throughout. Also, the “Purity (HPLC)” value in series [3] (setting [10]), in series [3] (setting [11]) and in series [3] (setting [12]) was 99.4% in each case. Besides, the Crystal form result in series [2] (setting [5]), in series [2] (setting [6]), in series [2] (setting [8]), in series [3] (0 day (initial)), in series [3] (setting [9]) and in series [3] (setting [10]) was “form B” throughout. For the same compound, the Crystal form entry in series [3] (setting [11]), in series [3] (setting [12]) and in series [3] (setting [7]) was “form B” throughout. Besides, the “change of purity and crystalline form” value in series [2] (all stability conditions (high temperature, high humidity, illumination, long-term and accelerated)) is “did not change significantly”. Moreover, in series [3] (conclusion in words, all stability conditions), the chemical stability result is “good chemical stability”. For the same compound, the hygroscopicity result in series [4] is “slightly hygroscopic (2%>ΔW %≥0.2%)”. Moreover, the ΔW % in series [4] (DVS) was 0.535%.
